# Measured values reported in the supplement of paper PMC10307832.
# Columns and labels:
# Assay in all cases: relative viability (nuclei count vs DMSO), 5 days (fraction); higher = more cells survive
# ABC-1 = system: ABC-1
# Summary of the method: (§1)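 Each reported value is a median over duplicate plates. It expresses relative viability: treated-well nuclei count divided by vehicle-well nuclei count. Lung cancer cell lines in 1536-well plates were dosed by pin tool a day after seeding, alone with one drug or with a fixed anchor-drug dose plus five library-drug doses (not always all listed) in √10 steps, and nuclei were counted after 5 days.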
# CAL-12T = system: CAL-12T
# Summary of the method: as §1
# ChaGo-K-1 = system: ChaGo-K-1
# Summary of the method: as §1
# HCC-366 = system: HCC-366
# Summary of the method: as §1
# HCC-78 = system: HCC-78
# Summary of the method: as §1
# LC-2-ad = system: LC-2-ad
# Summary of the method: as §1
# LOU-NH91 = system: LOU-NH91
# Summary of the method: as §1
# LU99A = system: LU99A
# Summary of the method: as §1
# NCI-H1395 = system: NCI-H1395
# Summary of the method: as §1
# NCI-H1651 = system: NCI-H1651
# Summary of the method: as §1
# NCI-H1755 = system: NCI-H1755
# Summary of the method: as §1
# NCI-H1793 = system: NCI-H1793
# Summary of the method: as §1
# NCI-H1944 = system: NCI-H1944
# Summary of the method: as §1
# NCI-H2087 = system: NCI-H2087
# Summary of the method: as §1
# NCI-H2170 = system: NCI-H2170
# Summary of the method: as §1
# NCI-H2228 = system: NCI-H2228
# Summary of the method: as §1
# NCI-H2405 = system: NCI-H2405
# Summary of the method: as §1
# NCI-H3122 = system: NCI-H3122
# Summary of the method: as §1
# NCI-H460 = system: NCI-H460
# Summary of the method: as §1
# PC-3 [JPC-3] = system: PC-3 [JPC-3]
# Summary of the method: as §1
# RERF-LC-KJ = system: RERF-LC-KJ
# Summary of the method: as §1
# UMC-11 = system: UMC-11
# Summary of the method: as §1
smiles,measurement,setting,value
CCN(CC)CCCCNc1ncc2cc(-c3cc(OC)cc(OC)c3)c(NC(=O)NC(C)(C)C)nc2n1 + CS(=O)(=O)N1CCN(Cc2cc3nc(-c4cccc5[nH]ncc45)nc(N4CCOCC4)c3s2)CC1 [Pictilisib] (partner 1 µM),relative viability,ABC-1; first compound 0.01 µM,0.686
same,relative viability,ABC-1; first compound 0.03162 µM,0.66
same,relative viability,ABC-1; first compound 0.1 µM,0.736
same,relative viability,ABC-1; first compound 0.3162 µM,0.818
same,relative viability,ABC-1; first compound 1 µM,0.671
same,relative viability,CAL-12T; first compound 0.03162 µM,0.322
same,relative viability,CAL-12T; first compound 0.1 µM,0.386
same,relative viability,CAL-12T; first compound 0.3162 µM,0.6
same,relative viability,CAL-12T; first compound 1 µM,0.397
same,relative viability,ChaGo-K-1; first compound 0.01 µM,0.551
same,relative viability,ChaGo-K-1; first compound 0.03162 µM,0.559
same,relative viability,ChaGo-K-1; first compound 0.1 µM,0.95
same,relative viability,ChaGo-K-1; first compound 0.3162 µM,0.98
same,relative viability,ChaGo-K-1; first compound 1 µM,0.437
same,relative viability,HCC-366; first compound 0.01 µM,0.102
same,relative viability,HCC-366; first compound 0.03162 µM,0.177
same,relative viability,HCC-366; first compound 0.1 µM,0.207
same,relative viability,HCC-366; first compound 0.3162 µM,0.164
same,relative viability,HCC-366; first compound 1 µM,0.176
same,relative viability,HCC-78; first compound 0.03162 µM,0.189
same,relative viability,HCC-78; first compound 0.1 µM,0.224
same,relative viability,HCC-78; first compound 0.3162 µM,0.218
same,relative viability,HCC-78; first compound 1 µM,0.185
same,relative viability,LC-2-ad; first compound 0.01 µM,0.481
same,relative viability,LC-2-ad; first compound 0.03162 µM,0.449
same,relative viability,LC-2-ad; first compound 0.1 µM,0.547
same,relative viability,LC-2-ad; first compound 0.3162 µM,0.544
same,relative viability,LC-2-ad; first compound 1 µM,0.392
same,relative viability,LOU-NH91; first compound 0.01 µM,0.476
same,relative viability,LOU-NH91; first compound 0.03162 µM,0.494
same,relative viability,LOU-NH91; first compound 0.1 µM,0.611
same,relative viability,LOU-NH91; first compound 0.3162 µM,0.524
same,relative viability,LOU-NH91; first compound 1 µM,0.51
same,relative viability,LU99A; first compound 0.01 µM,0.31
same,relative viability,LU99A; first compound 0.03162 µM,0.396
same,relative viability,LU99A; first compound 0.1 µM,0.345
same,relative viability,LU99A; first compound 0.3162 µM,0.313
same,relative viability,LU99A; first compound 1 µM,0.277
same,relative viability,NCI-H1395; first compound 0.03162 µM,0.486
same,relative viability,NCI-H1395; first compound 0.1 µM,0.949
same,relative viability,NCI-H1395; first compound 0.3162 µM,0.479
same,relative viability,NCI-H1395; first compound 1 µM,0.346
same,relative viability,NCI-H1651; first compound 0.01 µM,0.693
same,relative viability,NCI-H1651; first compound 0.03162 µM,0.706
same,relative viability,NCI-H1651; first compound 0.1 µM,0.624
same,relative viability,NCI-H1651; first compound 0.3162 µM,0.466
same,relative viability,NCI-H1651; first compound 1 µM,0.275
same,relative viability,NCI-H1755; first compound 0.01 µM,0.403
same,relative viability,NCI-H1755; first compound 0.03162 µM,0.386
same,relative viability,NCI-H1755; first compound 0.1 µM,0.479
same,relative viability,NCI-H1755; first compound 0.3162 µM,0.381
same,relative viability,NCI-H1755; first compound 1 µM,0.258
same,relative viability,NCI-H1793; first compound 0.01 µM,0.286
same,relative viability,NCI-H1793; first compound 0.1 µM,0.322
same,relative viability,NCI-H1793; first compound 0.3162 µM,0.233
same,relative viability,NCI-H1793; first compound 1 µM,0.224
same,relative viability,NCI-H1944; first compound 0.01 µM,0.362
same,relative viability,NCI-H1944; first compound 0.03162 µM,0.327
same,relative viability,NCI-H1944; first compound 0.1 µM,0.367
same,relative viability,NCI-H1944; first compound 0.3162 µM,0.352
same,relative viability,NCI-H1944; first compound 1 µM,0.341
same,relative viability,NCI-H2087; first compound 0.01 µM,0.784
same,relative viability,NCI-H2087; first compound 0.03162 µM,0.827
same,relative viability,NCI-H2087; first compound 0.1 µM,0.918
same,relative viability,NCI-H2087; first compound 0.3162 µM,0.961
same,relative viability,NCI-H2087; first compound 1 µM,0.984
same,relative viability,NCI-H2170; first compound 0.01 µM,0.326
same,relative viability,NCI-H2170; first compound 0.03162 µM,0.27
same,relative viability,NCI-H2170; first compound 0.1 µM,0.299
same,relative viability,NCI-H2170; first compound 0.3162 µM,0.317
same,relative viability,NCI-H2170; first compound 1 µM,0.322
same,relative viability,NCI-H2228; first compound 0.01 µM,0.441
same,relative viability,NCI-H2228; first compound 0.03162 µM,0.311
same,relative viability,NCI-H2228; first compound 0.1 µM,0.353
same,relative viability,NCI-H2228; first compound 0.3162 µM,0.539
same,relative viability,NCI-H2228; first compound 1 µM,0.246
same,relative viability,NCI-H2405; first compound 0.01 µM,0.361
same,relative viability,NCI-H2405; first compound 0.03162 µM,0.412
same,relative viability,NCI-H2405; first compound 0.1 µM,0.586
same,relative viability,NCI-H2405; first compound 0.3162 µM,0.531
same,relative viability,NCI-H2405; first compound 1 µM,0.404
same,relative viability,NCI-H3122; first compound 0.01 µM,0.618
same,relative viability,NCI-H3122; first compound 0.03162 µM,0.598
same,relative viability,NCI-H3122; first compound 0.1 µM,0.674
same,relative viability,NCI-H3122; first compound 0.3162 µM,0.64
same,relative viability,NCI-H3122; first compound 1 µM,0.592
same,relative viability,NCI-H460; first compound 0.01 µM,0.311
same,relative viability,NCI-H460; first compound 0.03162 µM,0.258
same,relative viability,NCI-H460; first compound 0.1 µM,0.417
same,relative viability,NCI-H460; first compound 0.3162 µM,0.382
same,relative viability,NCI-H460; first compound 1 µM,0.395
same,relative viability,PC-3 [JPC-3]; first compound 0.01 µM,0.739
same,relative viability,PC-3 [JPC-3]; first compound 0.03162 µM,0.843
same,relative viability,PC-3 [JPC-3]; first compound 0.1 µM,0.786
same,relative viability,PC-3 [JPC-3]; first compound 0.3162 µM,0.815
same,relative viability,PC-3 [JPC-3]; first compound 1 µM,0.602
same,relative viability,RERF-LC-KJ; first compound 0.01 µM,0.695
same,relative viability,RERF-LC-KJ; first compound 0.03162 µM,0.639
same,relative viability,RERF-LC-KJ; first compound 0.1 µM,0.528
same,relative viability,RERF-LC-KJ; first compound 0.3162 µM,0.671
same,relative viability,RERF-LC-KJ; first compound 1 µM,0.526
same,relative viability,UMC-11; first compound 0.01 µM,0.85
same,relative viability,UMC-11; first compound 0.03162 µM,0.806
same,relative viability,UMC-11; first compound 0.1 µM,0.987
same,relative viability,UMC-11; first compound 0.3162 µM,0.989
same,relative viability,UMC-11; first compound 1 µM,0.752
